Measured values: article PMC6321145 (Molecules, 2018)

Columns and labels:
Aβ1–42 = target: T1, Aβ1–42 (Homo sapiens, UniProt P05067); test: Inhibition of self-induced Aβ1–42 aggregation (ThT fluorescence assay); format: biochemical
T1 construct: Aβ1–42 (Sigma, St. Louis, MO, USA; counterion, NaOH) stock solution was prepared by dissolving Aβ1–42 peptide in ammonium hydroxide; purchased Sigma
Procedure: The formation and aggregation of Aβ1–42 in the brain leads to neurotoxicity in AD. In order to evaluate the activity of our new synthetic compounds to inhibit Aβ1–42 self-induced aggregation, the thioflavin (ThT) fluorescence assay was performed.
All ThT experiments were performed according to our previously published methods. Aβ1–42 (Sigma, St. Louis, MO, USA; counterion, NaOH) stock solution was prepared by dissolving Aβ1–42 peptide in ammonium hydroxide (1% v/v), and diluting with 20 mM phosphate buffer (pH 7.4) to 100 μM. The tested compounds were firstly dissolved in DMSO at a concentration of 10 mM, and then diluted with 20 mM phosphate buffer (pH 7.4) to 40 μM.
For the inhibition of self-induced Aβ1–42 aggregation. Aβ1–42 peptide (2 μL, 50 μM, final concentration) with the tested compound (2 μL, 20 μM, final concentration) or 20 mM phosphate buffer (2 μL) was incubated in 20 mM phosphate buffer (pH 7.4) at 37 °C for 72 h. After incubation, the samples were diluted to a final volume of 36 μL with 50 mM glycine-NaOH buffer (pH 8.5) containing 5 μM Thioflavin T. Fluorescence signal was measured (excitation wavelength 450 nm, emission wavelength 485 nm, and slit widths set to 5 nm) on a monochromator-based multimode microplate reader ([…] M1000, TECAN, Hombrechtikon, Switzerland), adapted for 384-well microtiter plates. […] Each compound was examined in triplicate.

[1] = Oxygen radical absorbance capacity with fluorescein (ORAC-FL) assay
Procedure: Oxidative stress is another crucial event in AD pathogenesis. In order to determine antioxidant activities of our synthetic compounds, the oxygen radical absorbance capacity method with fluorescein (ORAC-FL) assay was performed. with Trolox (6-hydroxy-2,5,7,8-tetramethylchroman-2-carboxylic acid) as the standard, and their antioxidant activity was expressed as Trolox equivalents.
The antioxidant activities of the compounds in vitro were determined by the oxygen radical absorbance capacity fluorescein (ORAC-FL) assay. The tested compounds and (±)-6-hydroxy-2,5,7,8-tetramethylchroman-2-carboxylic acid (Trolox) were dissolved in DMSO at a concentration of 10 mM, and then diluted with 75 mM potassium phosphate buffer (pH 7.4) to 50 μM and 10 μM for use. The fluorescein (FL) stock solution (3.4 mM) was diluted with the same buffer to 136 nM. All the assays were conducted with 75 mM potassium phosphate bufffer (pH 7.4), and the final reaction mixture was 200 μL.
The mixture of compounds (or buffer) (20 μL) and fluorescein (FL, 120 μL) were incubated for 15 min at 37 °C in a black 96-well plate. Then 2,2′-azobis-(amidino-propane)-dihydrochloride (AAPH) solution (60 μL, 40 mM) was rapidly added to the reaction mixture. The fluorescence was recorded every 5 min for 240 min at 485 nm (excitation wavelength) and 535 nm (emission wavelength) (Varioskan Flash Multimode Reader, Thermo Scientific, Waltham, MA, USA), and each sample was prepared and measured for three times independently. […] The net AUC for a sample was calculated using the expression net AUC = AUCsample − AUCblank, The ORAC-FL value of each sample was calculated using the equation of net AUCsample/(AUCTrolox – AUCblank), which was expressed as Trolox equivalents.

[2] = Cytotoxicity on SH-SY5Y cells (MTT); format: cell-based, human; settings: human, SH-SY5Y neuroblastoma cells; MTT, 24 h; mean ± SEM of three measurements
Procedure: The cytotoxicity of our synthesized compounds was examined in human neuroblastoma SH-SY5Y cells. The cell viability was determined by using methyl thiazolyl tetrazolium (MTT) colorimetry, the cells were treated with different concentrations of compounds (0–100 μM). The result is shown in the Supplementary Materials (Table S1).
The cytotoxicities of the compounds were evaluated using the MTT assay. SH-SY5Y cells were subcultured in 96-well plates at a seeding density of 1 × 10^4 cells per well. After 24 h, the medium was removed and treated with different concentrations of tested compounds for 24 h at 37 °C. The survival of cells was determined with MTT assay. Then 80 μL of medium and 20 μL of MTT (0.5 mg/mL, final concentration) were added to each well and incubated for another 4 h. After the removal of MTT, the formazan crystals were dissolved in DMSO. The amount of formazan was measured using a microculture plate reader at the wavelength of 570 nm. Each concentration was performed in triplicate.

[3] = inhibitor 20 μM, Aβ1–42 50 μM, ThT, 37 °C, 72 h, mean ± SD

T1 sequence (P05067 672-713): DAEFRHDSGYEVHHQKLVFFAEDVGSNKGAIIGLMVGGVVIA

| Compound | inhibition at 20 µM (Aβ1–42; [3]) | ORAC ([1]; compound 1 μM) | IC50 at 24 h [2] | melting point | ORAC ([1]; compound 5 μM) | IC50 (Aβ1–42; ThT fluorescence method, mean ± SD of three experiments, read-out: IC50 against self-induced Aβ1–42 aggregation) | Aβ1–42 Aggregation Inhibition (%) (Aβ1–42; [3]) |
| --- | --- | --- | --- | --- | --- | --- | --- |
| CCN(CC)CCCNc1cc(/C=C/c2ccc(N(C)C)cc2)nc2ccccc12 [Compound 6a2, (E)-N^1-(2-(4-(Dimethylamino)styryl)quinolin-4-yl)-N^3,N^3-diethylpropane-1,3-diamine] | 88.5 ± 1.5% | 5.74 ± 0.09 μmol of Trolox equivalents/μmol of tested compounds | 187.5 ± 0.2 µM | 168.5 to 170.1 °C |  |  |  |
| CN(C)c1ccc(/C=C/c2cc(N3CCCCC3)c3ccccc3n2)cc1 [Compound 4b2, reference compound] | 81.2 ± 0.8% | 2.91 ± 0.11 μmol of Trolox equivalents/μmol of tested compounds |  |  | 3.12 ± 0.10 μmol of Trolox equivalents/μmol of tested compounds |  |  |
| CN(C)CCNc1cc(/C=C/c2ccc(N(C)C)cc2)nc2ccccc12 [Compound 6c2, (E)-N^1-(2-(4-(Dimethylamino)styryl)quinolin-4-yl)-N^2,N^2-dimethylethane-1,2-diamine] | 83.9 ± 2.4% | 3.28 ± 0.09 μmol of Trolox equivalents/μmol of tested compounds | 127.5 ± 0.4 µM | 148.9 to 149.6 °C | 3.53 ± 0.07 μmol of Trolox equivalents/μmol of tested compounds |  |  |
| CCN(CC)c1ccc(/C=C/c2cc(NCC(C)C)c3ccccc3n2)cc1 [Compound 6e1, (E)-2-(4-(Diethylamino)styryl)-N-isobutylquinolin-4-amine] | 77.9 ± 1.3% | 1.71 ± 0.05 μmol of Trolox equivalents/μmol of tested compounds | 143.6 ± 0.7 µM | 170.2 to 171.7 °C | 1.92 ± 0.11 μmol of Trolox equivalents/μmol of tested compounds |  |  |
| CCCCNc1cc(/C=C/c2ccc(N(CC)CC)cc2)nc2ccccc12 [Compound 6d1, (E)-N-Butyl-2-(4-(diethylamino)styryl)quinolin-4-amine] | 80.5 ± 1.4% | 1.38 ± 0.02 μmol of Trolox equivalents/μmol of tested compounds | 119.3 ± 0.7 µM | 172.5 to 173.8 °C | 1.56 ± 0.05 μmol of Trolox equivalents/μmol of tested compounds |  |  |
| CCN(CC)CCCNc1cc(/C=C/c2c[nH]c3ccccc23)nc2ccccc12 [Compound 6a3, (E)-N^1-(2-(2-(1H-Indol-3-yl)vinyl)quinolin-4-yl)-N^3,N^3-diethylpropane-1,3-diamine] | 84.3 ± 2.1% | 1.26 ± 0.06 μmol of Trolox equivalents/μmol of tested compounds | 147.8 ± 0.3 µM | 194.3 to 195.1 °C | 1.73 ±0.07 μmol of Trolox equivalents/μmol of tested compounds |  |  |
| CN(C)CCCNc1cc(/C=C/c2ccc(N(C)C)cc2)nc2ccccc12 [Compound 6b2, (E)-N^1-(2-(4-(Dimethylamino)styryl)quinolin-4-yl)-N^3,N^3-dimethylpropane-1,3-diamine] | 92.1 ± 1.3% | 5.61 ± 0.09 μmol of Trolox equivalents/μmol of tested compounds | 228 µM | 151.2 to 153.3 °C | 5.88 ± 0.01 μmol of Trolox equivalents/μmol of tested compounds | 6.1 ± 0.8 µM |  |
| COc1cc(/C=C/C(=O)CC(=O)/C=C/c2ccc(O)c(OC)c2)ccc1O [Cur, curcumin, reference compound] |  |  |  |  |  |  | 49.3 ± 1.2% |
| CCCCNc1cc(/C=C/c2ccc(N(C)C)cc2)nc2ccccc12 [Compound 6d2, (E)-N-Butyl-2-(4-(dimethylamino)styryl)quinolin-4-amine] | 79.2 ± 2.3% | 0.75 ± 0.06 μmol of Trolox equivalents/μmol of tested compounds | 112.4 ± 0.6 µM | 165.3 to 167.1 °C | 0.95 ± 0.09 μmol of Trolox equivalents/μmol of tested compounds |  |  |
| CCN(CC)c1ccc(/C=C/c2cc(N3CCCCC3)c3ccccc3n2)cc1 [Compound 4b1, reference compound] | 83.5 ± 1.4% | 3.70 ± 0.11 μmol of Trolox equivalents/μmol of tested compounds |  |  | 3.91 ± 0.11 μmol of Trolox equivalents/μmol of tested compounds |  |  |
